Data set [1] has as its system Aspergillus niger. In words: Determination of Minimum Inhibitory Concentrations (MIC), Sabouraud media. The data set is classed as cell-based. The conditions noted are these: Amical in free form. Here is the method:
(§1) The efficacy of Amical in comparison to Amical/methyl-β-cyclodextrin inclusion compound against different microorganism was tested by measuring the Minimum Inhibitory Concentrations (MIC in µg/ml). For the cell cultures Sabouraud media were used. […]

The subject of data set [2] is Cladosporium cladosporioides. The data set is described as above. The data set is classed as cell-based. Conditions: Amical in free form. Here is the method: as §1
In data set [3] the test system is Penicillium citrinum. Described as above. Type of data set: cell-based. The conditions noted are these: Amical in free form. Here is the method: as §1
In data set [4] the test system is Rhizopus oryzae. Described as above. The data set is classed as cell-based. Conditions: Rhizopus arrhizus, Amical in free form. The protocol:
as §1

The conditions of data set [5]: water; cited from earlier work.

Drawing on patent publication EP0917880A1, “Inclusion complex of diiodomethyl-p-tolylsulfone with cyclodextrin derivatives” (Wacker-Chemie GmbH, priority 1997, dated 1999), this text covers MIC and watersolubility for one compound.

Consider `Cc1ccc(S(=O)(=O)C(I)I)cc1` [Amical, diiodomethyl-p-tolylsulfone], for which the MIC in data set [1] was 1.2 mg/L; in data set [2], 1.3 mg/L; in data set [3], 3.8 mg/L; in data set [4] it was 7.5 to 14 mg/L. For the same compound, the watersolubility entry in data set [5] is “less than 5 ppm”.

A word on the MIC: it is the lowest concentration that inhibits growth of the organism.
